US4008220A, “Penicillins” (Sumitomo Chemical Company, Limited, priority 1972, dated 1977)
≈ marks a conversion by molar mass, not a printed value.

Columns and labels:
Escherichia coli NIHJ = assay: Minimal inhibitory concentration by agar dilution method; assay type: cell-based
[1] = tested on: Klebsiella pneumoniae 602; assay: as above; assay type: cell-based
Proteus mirabilis GN2425 = assay: as above; assay type: cell-based
[2] = tested on: Pseudomonas aeruginosa 104; assay: as above; assay type: cell-based
[3] = tested on: Staphylococcus aureus 209P; assay: as above; assay type: cell-based
Proteus vulgaris HX19 = assay: as above; assay type: cell-based
[4] = tested on: various gram-positive and gram-negative bacteria; settings: in words; cited from earlier work
Pseudomonas = settings: in words; cited from earlier work

Row | SMILES | MIC (Proteus mirabilis GN2425) [µg/mL] | MIC (Escherichia coli NIHJ) [µg/mL] | MIC [1] [µg/mL] | MIC [2] [µg/mL] | MIC [3] [µg/mL] | MIC (Proteus vulgaris HX19) [µg/mL] | growth inhibition / antimicrobial activity against gram-positive and gram-negative bacteria [4] | antimicrobial activity against Pseudomonas (Pseudomonas)
1 | CC1(C)S[C@@H]2[C@H](NC(=O)[C@H](NC(=O)c3cnccc3O)C3=CCC=CC3)C(=O)N2[C@H]1C(=O)O [Example 11, D-α-(4-hydroxypyridine-3-carboxamido)-1,4-cyclohexadienylmethylpenicillin] | 12.5 (≈ 26.5 µM) | 25 (≈ 52.9 µM) | 12.5 (≈ 26.5 µM) | 6.25 (≈ 13.2 µM) | 0.39 (≈ 0.825 µM) | 0.2 (≈ 0.423 µM) |  | 
2 | CC1(C)S[C@@H]2C(NC(=O)C(N)c3ccccc3)C(=O)N2[C@H]1C(=O)O (stereo partly drawn) [Ampicillin, 6-(α-aminophenylacetamido)-penicillanic acid] |  |  |  |  |  |  | inhibits the growth of various gram-positive and gram-negativebacteria | does not exert any appreciable antimicrobial activity against Pseudomonas
3 | CC1(C)S[C@@H]2[C@H](NC(=O)C(NC(=O)c3cnc4c(c3O)CCCCC4)c3ccccc3)C(=O)N2[C@H]1C(=O)O (stereo partly drawn) [Example 20] | 6.25 (≈ 11.6 µM) | 25 (≈ 46.4 µM) | 3.13 (≈ 5.81 µM) | 12.5 (≈ 23.2 µM) | 0.78 (≈ 1.45 µM) | 0.78 (≈ 1.45 µM) |  | 
4 | CC1(C)S[C@@H]2[C@H](NC(=O)C(NC(=O)c3ccnnc3O)C3=CCC=CC3)C(=O)N2[C@H]1C(=O)O (stereo partly drawn) [Example 12] | 12.5 (≈ 26.4 µM) | 12.5 (≈ 26.4 µM) | 3.13 (≈ 6.61 µM) | 3.13 (≈ 6.61 µM) | 0.2 (≈ 0.422 µM) | 0.05 (≈ 0.106 µM) |  | 
5 | CC1(C)S[C@@H]2[C@H](NC(=O)C(NC(=O)c3cnccc3O)c3cnsc3)C(=O)N2[C@H]1C(=O)O (stereo partly drawn) [Example 16] | 12.5 (≈ 26.2 µM) | 25 (≈ 52.4 µM) | 25 (≈ 52.4 µM) | 6.25 (≈ 13.1 µM) | 0.78 (≈ 1.63 µM) | 0.2 (≈ 0.419 µM) |  | 
6 | CC1(C)S[C@@H]2[C@H](NC(=O)[C@H](NC(=O)c3cccnc3O)c3ccc(O)cc3)C(=O)N2[C@H]1C(=O)O [Example 10, D-α-(2-hydroxypyridine-3-carboxamido)-p-hydroxybenzylpenicillin] | 12.5 (≈ 25.7 µM) | 12.5 (≈ 25.7 µM) | 100 (≈ 206 µM) | 6.25 (≈ 12.8 µM) | 1.56 (≈ 3.21 µM) | 0.2 (≈ 0.411 µM) |  | 
7 | CC1(C)S[C@@H]2[C@H](NC(=O)C(NC(=O)c3ccnnc3O)c3ccsc3)C(=O)N2[C@H]1C(=O)O (stereo partly drawn) [Example 15] | 6.25 (≈ 13.1 µM) | 12.5 (≈ 26.2 µM) | 12.5 (≈ 26.2 µM) | 3.13 (≈ 6.55 µM) | 0.39 (≈ 0.817 µM) | 0.05 (≈ 0.105 µM) |  | 
8 | Cc1cc(C(=O)NC(C(=O)N[C@@H]2C(=O)N3[C@@H]2SC(C)(C)[C@@H]3C(=O)O)c2ccccc2)c(O)nn1 (stereo partly drawn) [Example 24] | 50 (≈ 103 µM) | 12.5 (≈ 25.7 µM) | 25 (≈ 51.5 µM) | 3.13 (≈ 6.45 µM) | 0.39 (≈ 0.803 µM) | 0.39 (≈ 0.803 µM) |  | 
9 | CC1(C)S[C@@H]2[C@H](NC(=O)C(NC(=O)c3ccnnc3O)c3cnsc3)C(=O)N2[C@H]1C(=O)O (stereo partly drawn) [Example 19] | 6.25 (≈ 13.1 µM) | 12.5 (≈ 26.1 µM) | 25 (≈ 52.2 µM) | 6.25 (≈ 13.1 µM) | 0.39 (≈ 0.815 µM) | 0.05 (≈ 0.104 µM) |  | 
10 | CSc1ncc(C(=O)NC(C(=O)N[C@@H]2C(=O)N3[C@@H]2SC(C)(C)[C@@H]3C(=O)O)c2ccccc2)c(O)n1 (stereo partly drawn) [Example 27] | 12.5 (≈ 24.2 µM) | 50 (≈ 96.6 µM) | 50 (≈ 96.6 µM) | 6.25 (≈ 12.1 µM) | 0.78 (≈ 1.51 µM) | 0.1 (≈ 0.193 µM) |  | 
11 | CCOC(=O)Oc1c(C(=O)N[C@@H](C(=O)N[C@@H]2C(=O)N3[C@@H]2SC(C)(C)[C@@H]3C(=O)O)c2ccccc2)cnc2c1CCC2 [Example 1, D-α-(4-ethoxycarbonyloxy-2,3-cyclopentenopyridine-5-carboxamido)-benzylpenicillin] | 3.13 (≈ 5.37 µM) | 12.5 (≈ 21.5 µM) | 6.25 (≈ 10.7 µM) | 6.25 (≈ 10.7 µM) | 0.39 (≈ 0.669 µM) | 0.05 (≈ 0.0858 µM) |  | 
12 | CC1(C)S[C@@H]2[C@H](NC(=O)C(NC(=O)c3ccccn3)c3ccccc3)C(=O)N2[C@H]1C(=O)O (stereo partly drawn) [I, reference compound] | 50 (≈ 110 µM) |  |  |  |  |  |  | 
13 | CC1(C)S[C@@H]2[C@H](NC(=O)C(NC(=O)c3cncnc3O)c3ccsc3)C(=O)N2[C@H]1C(=O)O (stereo partly drawn) [Example 17] | 6.25 (≈ 13.1 µM) | 25 (≈ 52.4 µM) | 50 (≈ 105 µM) | 3.13 (≈ 6.55 µM) | 0.39 (≈ 0.817 µM) | 0.05 (≈ 0.105 µM) |  | 

More lines, main results first:

Row | MIC (Proteus mirabilis GN2425) [µg/mL] | SMILES | MIC (Escherichia coli NIHJ) [µg/mL] | MIC [1] [µg/mL] | MIC [2] [µg/mL] | MIC [3] [µg/mL] | MIC (Proteus vulgaris HX19) [µg/mL] | growth inhibition / antimicrobial activity against gram-positive and gram-negative bacteria [4] | antimicrobial activity against Pseudomonas (Pseudomonas)
14 | 6.25 (≈ 10.5 µM) | CCOC(=O)Oc1c(C(=O)N[C@@H](C(=O)N[C@@H]2C(=O)N3[C@@H]2SC(C)(C)[C@@H]3C(=O)O)c2ccccc2)cnc2c1CCCC2 [Example 6, D-α -(4-ethoxycarbonyloxy-2,3-cyclohexenopyridine-5-carboxamido)-benzylpenicillin] | 12.5 (≈ 20.9 µM) | 6.25 (≈ 10.5 µM) | 12.5 (≈ 20.9 µM) | 0.78 (≈ 1.31 µM) | 0.39 (≈ 0.654 µM) |  | 
15 | 6.25 (≈ 13.1 µM) | CC1(C)S[C@@H]2[C@H](NC(=O)C(NC(=O)c3ccnnc3O)c3cccs3)C(=O)N2[C@H]1C(=O)O (stereo partly drawn) [Example 18] | 12.5 (≈ 26.2 µM) | 12.5 (≈ 26.2 µM) | 3.13 (≈ 6.55 µM) | 0.39 (≈ 0.817 µM) | 0.05 (≈ 0.105 µM) |  | 
16 | 6.25 (≈ 10.3 µM) | CC(C)(C)C(=O)Oc1c(C(=O)N[C@@H](C(=O)N[C@@H]2C(=O)N3[C@@H]2SC(C)(C)[C@@H]3C(=O)O)c2ccccc2)cnc2c1CCCC2 [Example 5, D-α-(2,3-cyclohexeno-4-pivaloyloxypyridine-5-carboxamido)-benzylpenicillin] | 12.5 (≈ 20.5 µM) | 6.25 (≈ 10.3 µM) | 12.5 (≈ 20.5 µM) | 0.78 (≈ 1.28 µM) | 0.39 (≈ 0.641 µM) |  | 
17 | 6.25 (≈ 13.3 µM) | CC1(C)S[C@@H]2[C@H](NC(=O)[C@H](NC(=O)c3ccnnc3O)c3ccccc3)C(=O)N2[C@H]1C(=O)O [Example 8, D-α-(3-hydroxypyridazine-4-carboxamido)-benzylpenicillin] |  |  |  |  |  |  | 
18 | 12.5 (≈ 23.6 µM) | Cc1ncc(C(=O)NC(C(=O)N[C@@H]2C(=O)N3[C@@H]2SC(C)(C)[C@@H]3C(=O)O)c2ccccc2)c(O)c1C(C)O (stereo partly drawn) [Example 22] | 25 (≈ 47.3 µM) | 12.5 (≈ 23.6 µM) | 6.25 (≈ 11.8 µM) | 0.78 (≈ 1.48 µM) | 0.39 (≈ 0.738 µM) |  | 
19 | 6.25 (≈ 10.2 µM) | CCOC(=O)Oc1c(C(=O)NC(C(=O)N[C@@H]2C(=O)N3[C@@H]2SC(C)(C)[C@@H]3C(=O)O)c2ccccc2)cnc2c1CCCCC2 (stereo partly drawn) [Example 21] | 25 (≈ 40.9 µM) | 3.13 (≈ 5.13 µM) | 25 (≈ 40.9 µM) | 0.78 (≈ 1.28 µM) | 0.78 (≈ 1.28 µM) |  | 
20 | 6.25 (≈ 11.9 µM) | CC(=O)c1c(C)ncc(C(=O)N[C@@H](C(=O)N[C@@H]2C(=O)N3[C@@H]2SC(C)(C)[C@@H]3C(=O)O)c2ccccc2)c1O [Example 4, D-α-(3-acetyl-4-hydroxy-2-methyl-pyridine-5-carboxamido)-benzylpenicillin] | 12.5 (≈ 23.7 µM) | 12.5 (≈ 23.7 µM) | 12.5 (≈ 23.7 µM) | 0.78 (≈ 1.48 µM) | 0.39 (≈ 0.741 µM) |  | 
21 | 100 (≈ 220 µM) | CC1(C)S[C@@H]2[C@H](NC(=O)C(NC(=O)c3cccnc3)c3ccccc3)C(=O)N2[C@H]1C(=O)O (stereo partly drawn) [II, reference compound] | 100 (≈ 220 µM) | 100 (≈ 220 µM) | 50 (≈ 110 µM) | 0.78 (≈ 1.72 µM) | 0.78 (≈ 1.72 µM) |  | 
22 | 12.5 (≈ 24.5 µM) | CC1(C)S[C@@H]2[C@H](NC(=O)[C@H](NC(=O)c3cnc4c(c3O)CCC4)c3ccccc3)C(=O)N2[C@H]1C(=O)O [Example 2, D-α-(4-hydroxy-2,3-cyclopentenopyridine-5-carboxamido)-benzylpenicillin] | 25 (≈ 49 µM) | 12.5 (≈ 24.5 µM) | 12.5 (≈ 24.5 µM) | 0.39 (≈ 0.764 µM) | 0.39 (≈ 0.764 µM) |  | 
23 | 12.5 (≈ 26.6 µM) | CC1(C)S[C@@H]2[C@H](NC(=O)C(NC(=O)c3cnccc3O)c3ccccc3)C(=O)N2[C@H]1C(=O)O (stereo partly drawn) [Example 25] |  | 25 (≈ 53.1 µM) | 6.23 (≈ 13.2 µM) | 0.78 (≈ 1.66 µM) | 0.2 (≈ 0.425 µM) |  | 
24 | 6.25 (≈ 12.8 µM) | CC1(C)S[C@@H]2[C@H](NC(=O)[C@H](NC(=O)c3cnccc3O)c3ccc(O)cc3)C(=O)N2[C@H]1C(=O)O [Example 9, D-α-(4-hydroxypyridine-3-carboxamido)-p-hydroxybenzylpenicillin] |  | 100 (≈ 206 µM) |  | 0.78 (≈ 1.6 µM) |  |  | 
25 | 25 (≈ 55.4 µM) | CC(C)CC(NC(=O)c1ccnnc1O)C(=O)N[C@@H]1C(=O)N2[C@@H]1SC(C)(C)[C@@H]2C(=O)O (stereo partly drawn) [Example 13] | 12.5 (≈ 27.7 µM) | 25 (≈ 55.4 µM) | 12.5 (≈ 27.7 µM) | 0.39 (≈ 0.864 µM) | 0.39 (≈ 0.864 µM) |  | 
26 | 6.25 (≈ 11.9 µM) | CC1(C)S[C@@H]2[C@H](NC(=O)[C@H](NC(=O)c3cnc4c(c3O)CCCC4)c3ccccc3)C(=O)N2[C@H]1C(=O)O [Example 3, D-α-(4-hydroxy-2,3-cyclohexenopyridine-5-carboxamido)-benzylpenicillin] |  |  | 12.5 (≈ 23.8 µM) |  | 0.39 (≈ 0.743 µM) |  | 
